According to patent US11845959B2, “Identification of factor that promotes human HSC self-renewal” (THE REGENTS OF THE UNIVERSITY OF CALIFORNIA, priority 2016, dated 2023):

Test system: human HSPC
Assay: Flavopiridol treatment of human HSPC, HSPC expansion in culture (FACS, total HSPC expansion over time)
Format: cell-based
Conditions: 100 nM, similarly to MLLT3 overexpression
Excerpt: We investigated whether an effect on transcription elongation by a different factor might change the effect. We determined that Treatment of human HSPC with Flavopiridol, a regulator of transcription elongation machinery, expands HSPC in culture.

SMILES: CN1CC[C@H](c2c(O)cc(O)c3c(=O)cc(-c4ccccc4Cl)oc23)[C@H](O)C1 [Flavopiridol]
- HSPC expansion in culture: sustained HSPC expansion in culture
